Results as given in patent US20090118365A1, “Use of Prodrugs of GABA B Agonists for Treating Neuropathic and Musculoskeletal Pain” (XenoPort, Inc, priority 2007, published 2009).

Tests used:
[1] = rat, in vivo, 10 mg
Description: Rats were obtained commercially and were pre-cannulated in the both the ascending colon and the jugular vein. Animals were conscious at the time of the experiment. All animals were fasted overnight and until 4 hours post-dosing. […] Blood samples were analyzed as described according to the following procedure. […]
An API 2000 LC/MS/MS spectrometer equipped with Shimadzu 10ADVp binary pumps and a CTC HTS-PAL autosampler was used in the analysis. […] The peaks were integrated using Analyst 1.2 quantitation software.

[2] = male, cynomolgus monkey, in vivo
Excerpt: The following method can be used to determine the oral bioavailability of GABAB agonist prodrugs provided by the present disclosure in Cymologous monkeys, and therefore the appropriateness of the GABAB agonist prodrugs for use in oral sustained release dosage forms for treating neuropathic and musculoskeletal pain.
All plasma samples were subsequently analyzed for (R)-baclofen and intact prodrug using the LC/MS/MS assay described above.

[3] = in vivo; cited from earlier work

## CC(C)C(=O)O[C@@H](OC(=O)NC[C@H](CC(=O)O)c1ccc(Cl)cc1)C(C)C [compound (4), (3R)-4-{[(1S)-2-methyl-1-(2-methylpropanoyloxy)propoxy]carbonylamino}-3-(4-chlorophenyl)butanoic acid]
[1]
  maximum plasma concentration of (R)-baclofen (Cmax) relative to colonic administration of (R)-baclofen itself: > 2 fold
[2]
  oral bioavailability as (R)-baclofen: greater than 80%

## NCC(CC(=O)O)c1ccc(Cl)cc1 (racemic) [baclofen, (±)-4-Amino-3-(4-chlorophenyl)butanoic acid]
[3]
  elimination half-life: 3 to 4 h
